Test results as given in Sander's compilation of Henry's law constants.
“And” between values parts separate entries of the source, which are not always exact repeats. Equal entries are not always repeated. Values belong to the molecule of their own block, whether it stands above or below them.

Experiment: Henry solubility constant Hcp at 298.15 K (mol/(m3 Pa))
[1] = reference: Kawamoto and Urano (1989)
[2] = reference: Schuhfried et al. (2015)
[3] = reference: Buttery et al. (1971)
[4] = reference: Amoore and Buttery (1978)
[5] = reference: Dohnal and Fenclová (1995)
[6] = reference: Charles and Destaillats (2005)
[7] = reference: Khan and Brimblecombe (1992)
[8] = reference: Snider and Dawson (1985)
[9] = reference: Hovorka et al. (2019)
[10] = reference: von Hartungen et al. (2004)
[11] = reference: Simpson and Lovell (1962)
[12] = reference: Warner et al. (1980)
[13] = reference: Roberts and Pollien (1997)
[14] = reference: Butler et al. (1935)
[15] = reference: Fenclová et al. (2010)
[16] = reference: Murphy et al. (1983a)

Structure (SMILES): C/C=C/C(=O)C1=C(C)C=CCC1(C)C [(E)-β-damascenone]
- Henry solubility constant Hcp (reference: Wieland et al. (2015)): 0.32

Structure (SMILES): [2H][2H] [deuterium]
- Henry solubility constant Hcp (reference: Muccitelli and Wen (1978)): 7.9e-06

Structure (SMILES): O=C1OCc2c(Cl)c(Cl)c(Cl)c(Cl)c21 [4,5,6,7-tetrachlorophthalide]
- Henry solubility constant Hcp [1]: 18

Structure (SMILES): CCc1cccc2ccccc12 [1-ethylnaphthalene]
- Henry solubility constant Hcp (reference: Schwarz and Wasik (1977)): 0.022

Structure (SMILES): ClCC(Cl)Cl [1,1,2-trichloroethane]
- Henry solubility constant Hcp (reference: Bobadilla et al. (2003)): 0.012

Structure (SMILES): CCCS [1-propanethiol]
- Henry solubility constant Hcp (reference: Coquelet and Richon (2005)): 0.0017
- Henry solubility constant Hcp (reference: Haimi et al. (2006)): 0.0018

Structure (SMILES): C=Cc1ccccc1 [ethenylbenzene]
- Henry solubility constant Hcp (reference: Bissonette et al. (1990)): 0.0029

Structure (SMILES): C/C=C/C=C/C=O [(E,E)-2,4-hexadienal]
- Henry solubility constant Hcp [3]: 1

Structure (SMILES): Clc1ccc(-c2cc(Cl)c(Cl)cc2Cl)c(Cl)c1 [2,2',4,4',5-pentachlorobiphenyl]
- Henry solubility constant Hcp [6]: 0.0088

Structure (SMILES): CC(=O)C(=O)O [2-oxopropanoic acid]
- Henry solubility constant Hcp [7]: 3100
- Henry solubility constant Hcp (reference: Khan et al. (1992)): 3100
- Henry solubility constant Hcp (reference: Khan et al. (1995)): 3100

Structure (SMILES): C=CC=O [propenal]
- Henry solubility constant Hcp [8]: 0.072

Structure (SMILES): c1ccc2c(c1)[nH]c1ccccc12 [carbazole]
- Henry solubility constant Hcp (reference: Odabasi et al. (2006)): 93

Structure (SMILES): N#Cc1ccccc1 [benzenenitrile]
- Henry solubility constant Hcp (reference: Lee et al. (2013)): 0.29

Structure (SMILES): FC(F)(F)CCl [2-chloro-1,1,1-trifluoroethane]
- Henry solubility constant Hcp (reference: Maaßen (1995)): 0.00037
- Henry solubility constant Hcp (reference: Reichl (1995)): 0.00041

Structure (SMILES): COc1cc(CC(C)=O)ccc1O [guaiacylacetone]
- Henry solubility constant Hcp (reference: McFall et al. (2020)): 12000

Structure (SMILES): C1=NCCC1 [1-pyrroline]
- Henry solubility constant Hcp [4]: 1.6

Structure (SMILES): FC(F)=C(F)C(F)(F)F [hexafluoropropene]
- Henry solubility constant Hcp (reference: Maaßen (1995)): 6.8e-06

Structure (SMILES): CC1=CC=C(C(C)C)CC1 [1-methyl-4-(1-methylethyl)-1,3-cyclohexadiene]
- Henry solubility constant Hcp (reference: Copolovici and Niinemets (2005)): 0.00029
- Henry solubility constant Hcp [2]: 0.00038

Structure (SMILES): C[C@@H]1CCC[C@]2(C)CCCC[C@@]12O [geosmin]
- Henry solubility constant Hcp (reference: Ömür-Özbek and Dietrich (2005)): 0.081

Structure (SMILES): O=C1CCCCC1 [cyclohexanone]
- Henry solubility constant Hcp (reference: Hawthorne et al. (1985)): 0.82

Structure (SMILES): O=C(O)C(Cl)(Cl)Cl [trichloroethanoic acid]
- Henry solubility constant Hcp (reference: Bowden et al. (1998b)): 730

Structure (SMILES): CCN(CC)C(=O)SCc1ccc(Cl)cc1 [S-(4-chlorobenzyl) diethylthiocarbamate]
- Henry solubility constant Hcp [1]: 4.9

Structure (SMILES): COP(=S)(OC)Oc1ccc([N+](=O)[O-])c(C)c1 [fenitrothion]
- Henry solubility constant Hcp (reference: Metcalfe et al. (1980)): 11

Structure (SMILES): C#CC=C [3-buten-1-yne]
- Henry solubility constant Hcp [11]: 0.00038

Structure (SMILES): ClC(Cl)(Cl)C(Cl)(Cl)Cl [hexachloroethane]
- Henry solubility constant Hcp (reference: Munz and Roberts (1986)): 0.0034
- Henry solubility constant Hcp (reference: Munz and Roberts (1987)): 0.0025
- Henry solubility constant Hcp [12]: 0.001

Structure (SMILES): ClC1(Cl)C2(Cl)C3(Cl)C4(Cl)C(Cl)(Cl)C5(Cl)C3(Cl)C1(Cl)C5(Cl)C24Cl (stereo unspecified) [mirex]
- Henry solubility constant Hcp (reference: Yin and Hassett (1986)): 0.012

Structure (SMILES): CCCl [chloroethane]
- Henry solubility constant Hcp (reference: Chen et al. (2012)): 0.00076
- Henry solubility constant Hcp (reference: Gossett (1987)): 0.00088
- Henry solubility constant Hcp (reference: Maaßen (1995)): 0.00089
- Henry solubility constant Hcp (reference: Reichl (1995)): 0.00093

Structure (SMILES): O=C(O)C(F)(F)C(F)(F)C(F)(F)C(F)(F)C(F)(F)F [perfluorohexanoic acid]
- Henry solubility constant Hcp (reference: Kwan (2001)): 1.1

Structure (SMILES): CS(C)=O [dimethylsulfoxide]
- Henry solubility constant Hcp (reference: Lee and Zhou (1994)): > 9900
- Henry solubility constant Hcp (reference: Watts and Brimblecombe (1987)): 940

Structure (SMILES): Clc1cccc(-c2ccc(Cl)cc2Cl)c1 [2,3',4-trichlorobiphenyl]
- Henry solubility constant Hcp [16]: 0.062

Structure (SMILES): O=C(O)C(Br)Br [dibromoethanoic acid]
- Henry solubility constant Hcp (reference: Bowden et al. (1998a)): 2200

Structure (SMILES): C=CC(C)=O [3-buten-2-one]
- Henry solubility constant Hcp (reference: Allen et al. (1998)): 0.21
- Henry solubility constant Hcp (reference: Iraci et al. (1999)): 0.4
- Henry solubility constant Hcp (reference: Ji and Evans (2007)): 0.26

Structure (SMILES): Cc1ccccc1O [1-hydroxy-2-methylbenzene]
- Henry solubility constant Hcp [5]: 5.6
- Henry solubility constant Hcp (reference: Feigenbrugel et al. (2004b)): 4.2
- Henry solubility constant Hcp (reference: Harrison et al. (2002)): 11
- Henry solubility constant Hcp (reference: Parsons et al. (1972)): 8.2

Structure (SMILES): O=[N+]([O-])c1ccccc1 [nitrobenzene]
- Henry solubility constant Hcp [12]: 0.41

Structure (SMILES): Clc1cc(Cl)c(-c2cc(Cl)c(Cl)cc2Cl)cc1Cl [2,2',4,4',5,5'-hexachlorobiphenyl]
- Henry solubility constant Hcp [16]: 0.028

Structure (SMILES): Brc1ccc(Oc2ccccc2)cc1 [4-bromodiphenyl ether]
- Henry solubility constant Hcp [6]: 0.058

Structure (SMILES): CN=C=S [methyl isothiocyanate]
- Henry solubility constant Hcp (reference: Worthington and Wade (2007)): 0.16

Structure (SMILES): O=Cc1ccccc1 [benzaldehyde]
- Henry solubility constant Hcp (reference: Allen et al. (1998)): 0.35
- Henry solubility constant Hcp (reference: Allou et al. (2011)): 0.32
- Henry solubility constant Hcp (reference: Souchon et al. (2004)): 0.34

Structure (SMILES): CC(=O)N1CCCC1 [N-acetylpyrrolidine]
- Henry solubility constant Hcp (reference: Gibbs et al. (1991)): 6200

Structure (SMILES): CCC(C)O (stereo unspecified) [2-butanol]
- Henry solubility constant Hcp [14]: 0.96
- Henry solubility constant Hcp [8]: 1.1

Structure (SMILES): COc1ccccc1 [methoxybenzene]
- Henry solubility constant Hcp (reference: Brockbank et al. (2013)): 0.029

Structure (SMILES): Clc1ccc(-c2ccc(Cl)c(Cl)c2)cc1Cl [3,3',4,4'-tetrachlorobiphenyl]
- Henry solubility constant Hcp [6]: 0.029

Structure (SMILES): FN(F)N(F)F [dinitrogen tetrafluoride]
- Henry solubility constant Hcp (reference: Dean et al. (1973)): 8.4e-06

Structure (SMILES): C#CC [propyne]
- Henry solubility constant Hcp (reference: Inga and McKetta (1961)): 0.00062
- Henry solubility constant Hcp [11]: 0.00077

More lines, now with the values ahead:

- Henry solubility constant Hcp (reference: Lei et al. (2007)): 0.36
- Henry solubility constant Hcp (reference: Shunthirasingham et al. (2013)): 0.38
Structure (SMILES): CCCCCCCO [1-heptanol]

- Henry solubility constant Hcp (reference: Wu et al. (2022b)): 0.12
Structure (SMILES): CC(=O)CCC=C(C)C [6-methyl-5-hepten-2-one]

- Henry solubility constant Hcp (reference: Drouillard et al. (1998)): 0.2 and 0.38
Structure (SMILES): CC(Cl)CCC(Cl)C(Cl)CCC(Cl)CCl (stereo not drawn) [pentachlorodecane isomers]

- Henry solubility constant Hcp (reference: Karl et al. (2008)): 0.33
Structure (SMILES): COC(=O)c1ccccc1O [2-hydroxybenzoic acid methyl ester]

- Henry solubility constant Hcp (reference: Wu et al. (2022b)): 0.13
Structure (SMILES): CCC(=O)C(C)=O [2,3-pentanedione]

- Henry solubility constant Hcp (reference: Khan et al. (1992)): 25
Structure (SMILES): C=C(C)C(=O)O [2-methyl-2-propenoic acid]

- Henry solubility constant Hcp (reference: Hartkopf and Karger (1973)): 0.0022
Structure (SMILES): CCCOCCC [dipropyl ether]

- Henry solubility constant Hcp [2]: 8.1e-06
Structure (SMILES): C=C/C(C)=C/C/C=C(\C)CCC=C(C)C [α-farnesene]

- Henry solubility constant Hcp [4]: 0.01
Structure (SMILES): CC(C)COC(=O)C(C)C [2-methylpropyl 2-methylpropanoate]

- Henry solubility constant Hcp [5]: 16
Structure (SMILES): Cc1cc(C)cc(O)c1 [1-hydroxy-3,5-dimethylbenzene]

- Henry solubility constant Hcp [4]: 0.31
- Henry solubility constant Hcp (reference: Christie and Crisp (1967)): 0.4
Structure (SMILES): CCCCCN [1-pentanamine]

- Henry solubility constant Hcp (reference: Goss et al. (2006)): 0.013
- Henry solubility constant Hcp (reference: Lei et al. (2004)): 6.1e-05
- Henry solubility constant Hcp (reference: Wu and Chang (2011)): 0.0066
Structure (SMILES): OCCC(F)(F)C(F)(F)C(F)(F)C(F)(F)F [1H,1H,2H,2H-perfluorohexan-1-ol]

- Henry solubility constant Hcp [9]: 0.093
Structure (SMILES): CC(=O)C(C)C [3-methyl-2-butanone]

- Henry solubility constant Hcp [7]: 13
- Henry solubility constant Hcp (reference: Khan et al. (1995)): 13
- Henry solubility constant Hcp (reference: Kim and Kim (2016)): 9.9
- Henry solubility constant Hcp [10]: 7.5
Structure (SMILES): CCCCCC(=O)O [hexanoic acid]

- Henry solubility constant Hcp [13]: 0.81
Structure (SMILES): CCc1ncc(C)nc1CC [2,3-diethyl-5-methylpyrazine]

- Henry solubility constant Hcp (reference: Fichan et al. (1999)): 0.36
Structure (SMILES): CC1(C)[C@H]2CC[C@](C)(C2)[C@H]1O [(1R)-1,3,3-trimethylbicyclo[2.2.1]heptan-2-ol]

- Henry solubility constant Hcp (reference: Ondo and Dohnal (2007)): 0.063
Structure (SMILES): COCOC [dimethoxymethane]

- Henry solubility constant Hcp [3]: 2
Structure (SMILES): CC(C)Cc1cnccn1 [2-isobutylpyrazine]

- Henry solubility constant Hcp [14]: 0.67
- Henry solubility constant Hcp [15]: 0.71
Structure (SMILES): CCCC(C)O (stereo unspecified) [2-pentanol]

- Henry solubility constant Hcp (reference: Anderson (2011)): 0.00068
- Henry solubility constant Hcp (reference: Kutsuna (2017)): 0.00064
- Henry solubility constant Hcp (reference: Maaßen (1995)): 0.00069
- Henry solubility constant Hcp (reference: Miguel et al. (2000)): 0.0003
- Henry solubility constant Hcp (reference: Reichl (1995)): 0.00069
Structure (SMILES): FCF [difluoromethane]

- Henry solubility constant Hcp (reference: Chai et al. (2005)): 0.086
- Henry solubility constant Hcp [9]: 0.099
- Henry solubility constant Hcp (reference: Straver and de Loos (2005)): 0.11
Structure (SMILES): CCCCC(C)=O [2-hexanone]

- Henry solubility constant Hcp (reference: Wu et al. (2022a)): 0.15
Structure (SMILES): CCCCC(CC)CO (stereo unspecified) [2-ethyl-1-hexanol]

- Henry solubility constant Hcp (reference: Nguyen (2013)): 4300
Structure (SMILES): CN(C)CCOCCO [dimethylaminoethoxyethanol]

- Henry solubility constant Hcp [14]: 0.7
- Henry solubility constant Hcp [15]: 0.78
Structure (SMILES): CCC(C)CO (stereo unspecified) [2-methyl-1-butanol]

- Henry solubility constant Hcp [4]: 12
- Henry solubility constant Hcp [7]: 12
- Henry solubility constant Hcp (reference: Khan et al. (1995)): 12
- Henry solubility constant Hcp (reference: Kim and Kim (2016)): 27
- Henry solubility constant Hcp [10]: 11
Structure (SMILES): CC(C)CC(=O)O [3-methylbutanoic acid]

- Henry solubility constant Hcp [15]: 0.54
Structure (SMILES): CC(C)C(C)O (stereo unspecified) [3-methyl-2-butanol]

- Henry solubility constant Hcp [13]: 0.058
Structure (SMILES): CCCCCC/C=C/C=O [(E)-2-nonenal]

- Henry solubility constant Hcp [15]: 0.64
Structure (SMILES): CCC(O)CC [3-pentanol]
